Legend:
[1] = test system: human colorectal carcinoma (HCT-116); experiment: MTT cytotoxicity assay, HCT-116; format: cell-based; details: 48 h, mean ± SD
Method: (§1) The cells of human liver carcinoma (HepG2), human breast adenocarcinoma (MCF-7), human colorectal carcinoma (HCT-116), and human lung carcinoma (A549) were purchased from the American Type Culture Collection (Rockville, MD). All cells were maintained in a Dulbecco’s modified Eagle’s medium (DMEM), which was supplemented with 10% of heat-inactivated fetal bovine serum (FBS) and 100 U/mL penicillin and streptomycin each. The cells were grown at 37 °C in a humidified atmosphere of 5% CO2.
(§2) The cytotoxicity activities on the human liver carcinoma (HepG2), human breast adenocarcinoma (MCF-7), human colorectal carcinoma (HCT-116), and human lung carcinoma (A549) cell lines were estimated employing the 3-(4,5-dimethyl-2-thiazolyl)-2,5-diphenyl-2H-tetrazolium bromide (MTT) assay, which was grounded on the reduction of the tetrazolium salt by mitochondrial dehydrogenases in viable cells.[51],[52] The cells were dispensed in a 96-well sterile microplate (3 × 10^4 cells/well), followed by their incubation at 37 °C with a series of different concentrations of 10 μL of each compound or doxorubicin (positive control, in DMSO) for 48 h in a serum-free medium prior to the MTT assay. Subsequently, the media were carefully removed, and 40 μL of MTT (2.5 mg/mL) was added to each well and then incubated for an additional 4 h. Purple formazan dye crystals were solubilized by the addition of 200 μL of DMSO. The absorbance was measured at 570 nm using a SpectraMax Paradigm Multi-Mode microplate reader. The relative cell viability was expressed as the mean percentage of viable cells relative to the untreated control cells. All experiments were conducted in triplicate and were repeated on three different days. All of the values were represented as mean ± standard deviation (SD). The IC50s were determined by the SPSS probit analysis software program (SPSS Inc., Chicago, IL).

[2] = test system: human breast adenocarcinoma (MCF-7); experiment: MTT cytotoxicity assay, MCF-7; format: cell-based; details: MCF7, 48 h, mean ± SD
Method: as §1, §2

[3] = test system: human liver carcinoma (HepG2); experiment: MTT cytotoxicity assay, HepG2; format: cell-based; details: 48 h, mean ± SD
Method: as §1, §2

[4] = test system: human lung carcinoma (A549); experiment: MTT cytotoxicity assay, A549; format: cell-based; details: 48 h, mean ± SD
Method: as §1, §2

HepG2 cancer cells [5] = experiment: Annexin V/PI apoptosis detection by flow cytometry; format: cell-based, human; details: negative control DMSO 1.49%
Method: The induction of apoptosis has been investigated using the annexin V/propidium iodide (PI) staining assay for both compounds 7a and 7b on HepG2.
(§3) Cell cycle analysis and apoptosis detection were carried out using flow cytometry.[62] Both HepG2 and MCF-7 cells were seeded at 8 × 10^4 and incubated at 37 °C and 5% CO2 overnight. After treatment with the tested compounds for 24 h, cell pellets were collected and centrifuged (300g, 5 min). For cell cycle analysis, the cell pellets were fixed with 70% ethanol on ice for 15 min and collected again. The collected pellets were incubated with propidium iodide (PI) staining solution (50 μg/mL PI, 0.1 mg/mL RNaseA, 0.05% Triton X-100) at room temperature for 1 h and analyzed using a Gallios flow cytometer (Beckman Coulter, Brea, CA). Apoptosis detection was performed using a FITC annexin V/PI commercial kit (Becton Dickenson, Franklin Lakes, NJ) following the manufacturer’s protocol. The samples were analyzed using fluorescence-activated cell sorting (FACS) with a Gallios flow cytometer (Beckman Coulter, Brea, CA) within 1 h after staining. Data were analyzed using Kaluza v1.2 (Beckman Coulter).

HepG2 cancer cells [6] = experiment: Cell cycle analysis by flow cytometry (PI staining); format: cell-based, human; details: for accumulation of cells at the Pre G1 phase, fold compared to the control / increase in S phase, fold compared to the reference control / reduction in the percentage of cells at the G2/M phase, fold: HepG2, 7a and 7b at 7.9 and 6.1 μM respectively, 24 h; for %preG / %DIP G2/M / %DIP G1 / %DIP S: HepG2, Figure 3; for %preG: negative control 1.49%; for %DIP G2/M: negative control 9.7%; for %DIP G1: negative control 43.72%; for %DIP S: negative control 46.58%
Method: To elucidate whether the cytotoxic activity is due to suppression of cell cycle progression, HepG2 cells were exposed to compounds 7a and 7b at concentrations of 7.9 and 6.1 μM, respectively, for 24 h and analyzed using flow cytometry. […] These compounds also provided a slight increase in S phases by 0.1- and 0.14-fold, respectively, compared to the reference control, as shown in Figure 3.
as §3

caspase-3 = experiment: Caspase-3 (active) ELISA in treated HepG2 cells; format: cell-based, human; details: for caspase-3 activation, fold higher than the negative control: HepG2, 7a and 7b at 7.9 and 6.1 μM respectively, 24 h; for caspase-3: HepG2 cells treated 24 h, cont. HepG2 67.3 ± 2.8
Method: It has been reported that caspases cascade through either intrinsic or extrinsic pathways that mediate the induction of apoptosis, which may lead to apoptotic cell death.[53]−[55] Caspase-3 is involved in cell shrinkage, chromatin condensation, and DNA fragmentation inside the cells, causing apoptosis induction.
Activities of caspase-3 were measured using the Invitrogen caspase-3 (Active) (human) ELISA kit, Catalog # KHO1091 (96 tests) (Invitrogen Corporation) according to the manufacturer’s instructions.

Bcl-2 = Bcl-2 ELISA in treated HepG2 cells; format: cell-based, human; details: for Bcl-2 level relative to control, fold: HepG2, versus control; for Bcl-2: HepG2 cells treated, cont. HepG2 6.222 ± 0.14
Method: Furthermore, it is well known that the antiapoptotic Bcl-2 protein plays a critical role in cancer resistance therapy.[56] Therefore, we have studied the effect of both compounds 7a and 7b on Bcl-2 protein expression levels. They provided a 0.5- and 0.4-fold decrease in the Bcl-2 concentration, respectively.
Activities of Bcl-2 were measured using the Invitrogen Zymed Bcl-2 ELISA Kit, Catalog # 99–0042 (96 tests) (Invitrogen Corporation) according to the manufacturer’s instructions.

Bax = Bax ELISA in treated HepG2 cells; format: cell-based, human; details: cont. HepG2 5.762 ± 1.18
Method: In addition, the pro-apoptotic protein (Bax) is a protein that accelerates apoptosis by binding to and antagonizing the death repressor activity of Bcl-2.[57] Following any apoptotic stimuli, Bax causes activation of caspase-3 and perpetuates the apoptotic cascade.[58] The Bax protein expression level is altered in various human malignancies.[59],[60] Therefore, the effect of both compounds 7a and 7b on the Bax expression level has been studied.
Activities of Bax were measured using the Human Bax ELISA kit (DRG Human Bax ELISA (EIA-4487) DRG International, Inc.) according to the manufacturer’s instructions.

CDK-2 enzyme = CDK-2 enzyme (Homo sapiens, UniProt P24941); experiment: In vitro CDK-2 enzyme inhibitory assessment (ELISA); format: biochemical
Method: Estimation of CDK-2 was performed using ELISA through an affinity tag labeled capture antibody and a reporter conjugated detector antibody, which immunocapture the sample analyte in solution. The addition of the standard and samples to the wells is carried out, followed by the addition of the antibody mix. After the incubation period is completed, the wells are washed, and the unrestrained substance is discarded. Then, TMB (3,3′,5,5′-tetramethylbenzidine) substrate is added, and prompted by horseradish peroxidase (HRP), blue coloration appeared. The reaction was stopped by the addition of a stop solution, completely changing the color from blue to yellow. Signals were created equivalently to the quantity of the bound analyte, and the intensity was recorded at a certain wavelength (450 nm) using a Robonik P2000 ELISA reader. The concentrations of the tested compounds were calculated from the plotted curve.

IC50 (CDK-2 enzyme) [µM] | Compound | IC50 [1] [µM] | IC50 [2] [µM] | IC50 [3] [µM] | IC50 [4] [µM] | total necrosis and apoptosis (early and late) percentage (HepG2 cancer cells [5]) [%] | accumulation of cells at the Pre G1 phase, fold compared to the control (HepG2 cancer cells [6]) [fold] | increase in S phase, fold compared to the reference control (HepG2 cancer cells [6]) [fold] | reduction in the percentage of cells at the G2/M phase, fold (HepG2 cancer cells [6]) [fold] | %preG (HepG2 cancer cells [6]) [%] | %DIP G2/M (HepG2 cancer cells [6]) [%] | %DIP G1 (HepG2 cancer cells [6]) [%] | %DIP S (HepG2 cancer cells [6]) [%] | caspase-3 activation, fold higher than the negative control (caspase-3) [fold] | caspase-3 (caspase-3) [pg/mL] | Bcl-2 level relative to control, fold (Bcl-2) [fold] | Bcl-2 (Bcl-2) [ng/mL] | Bax (Bax) [pg/mL]
0.074 ± 0.15 | O=C(Nc1ccccc1)c1c(Nc2ccccc2)n[nH]c1N=Cc1c[nH]c2ccccc12 [7a, 5-((1H-Indol-3-yl)methyleneamino)-N-phenyl-3-(phenylamino)-1H-pyrazole-4-carboxamide] | 17.4 ± 3.2 | 10.6 ± 2.3 | 6.1 ± 1.9 | 23.7 ± 3.1 | 22.18 | 14.9 | 0.1 | 2.4 | 22.18 | 4.11 | 44.61 | 51.28 | 7 | 388.7 ± 7 | 0.5 | 3.123 ± 0.1 | 211.3 ± 5.9
0.095 ± 0.1 | Cc1ccc(NC(=O)c2c(Nc3ccccc3)n[nH]c2N=Cc2c[nH]c3ccccc23)cc1 [7b, 5-((1H-Indol-3-yl)methyleneamino)-3-(phenylamino)-N-(4-methylphenyl)-1H-pyrazole-4-carboxamide] | 19.6 ± 3.5 | 14.5 ± 2.5 | 7.9 ± 1.9 | 14.1 ± 2.1 | 27.51 | 18.5 | 0.14 | 29.4 | 27.51 | 0.33 | 46.39 | 53.28 | 5.8 | 469.8 ± 10 | 0.4 | 2.479 ± 0.07 | 272.6 ± 11.5

From paper PMC8154124, “Design, Synthesis, Anticancer Evaluation, Enzymatic Assays, and a Molecular Modeling Study of Novel Pyrazole–Indole Hybrids” (ACS Omega, 2021)
